# What was measured:
# HCT-116 [1] = experiment: Antiproliferative activity against human HCT-116 cells harboring p53 assessed inhibition of cell growth incubated for 4 days by CCK-8 assay; settings: HCT-116, 96 h
# RKO = experiment: Antiproliferative activity against human RKO cells harboring p53 assessed inhibition of cell growth incubated for 4 days by CCK-8 assay; settings: 96 h
# U2OS = experiment: Antiproliferative activity against human U2OS cells harboring p53 assessed inhibition of cell growth incubated for 4 days by celltiter-glo assay; settings: 96 h
# A549 = experiment: Growth inhibition of human A549 cells harboring p53 incubated for 4 days by CCK-8 assay; settings: A549, 96 h
# HepG2 = experiment: Growth inhibition of human HepG2 cells harboring p53 incubated for 4 days by celltiter glo assay; settings: HepG2, 96 h
# NCI-H460 = experiment: Growth inhibition of human NCI-H460 cells harboring p53 incubated for 4 days by CCK-8 assay; settings: NCI-H460, 96 h
# HeLa = experiment: Growth inhibition of human HeLa cells harboring p53 incubated for 4 days by CCK-8 assay; settings: 96 h
# SW480 = experiment: Growth inhibition of human SW480 cells incubated for 4 days by CCK-8 assay; settings: SW480, 96 h
# MSTO-211H = experiment: cells; settings: Homo sapiens, 96 h
# Description: Growth inhibition of human MSTO-211H cells harboring p53 incubated for 4 days by CCK-8 assay
# [2] = molecular target: Tumour suppressor protein p53/Mdm4 (Homo sapiens, UniProt O15151); experiment: Binding affinity to MDM4/p53 (unknown origin) assessed as inhibition constant by FP assay
# [3] = molecular target: Tumour suppressor p53/oncoprotein Mdm2 (Homo sapiens, UniProt Q00987); experiment: Binding affinity to MDM2/p53 (unknown origin) assessed as inhibition constant by FP assay
# Protein Mdm4 = molecular target: T1, Protein Mdm4 (Homo sapiens, UniProt O15151); experiment: biochemical
# T1 sequence (O15151 whole entry): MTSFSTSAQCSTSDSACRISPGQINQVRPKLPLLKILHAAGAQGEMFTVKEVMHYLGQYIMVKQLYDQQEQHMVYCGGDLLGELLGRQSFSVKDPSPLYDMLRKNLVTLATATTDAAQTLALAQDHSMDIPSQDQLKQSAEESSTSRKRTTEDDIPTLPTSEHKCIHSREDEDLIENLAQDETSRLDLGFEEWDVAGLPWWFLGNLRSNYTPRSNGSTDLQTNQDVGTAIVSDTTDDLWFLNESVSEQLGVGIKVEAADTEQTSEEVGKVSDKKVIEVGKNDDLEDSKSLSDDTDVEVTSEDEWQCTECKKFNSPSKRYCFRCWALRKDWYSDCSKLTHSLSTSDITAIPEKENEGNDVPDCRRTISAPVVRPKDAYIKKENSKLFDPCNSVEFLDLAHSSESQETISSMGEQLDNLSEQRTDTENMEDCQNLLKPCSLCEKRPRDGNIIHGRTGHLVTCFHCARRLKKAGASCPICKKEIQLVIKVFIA
# Description: Inhibition of MDM4 (14 to 111 residues)/p53 (unknown origin) interaction expressed in Escherichia coli BL21(DE3) cells assessed as inhibition constant incubated for 1.5 hrs by competitive fluorescence polarization assay
# HCT-116 [4] = experiment: Antiproliferative activity against human HCT-116 cells harboring p53 assessed inhibition of cell growth incubated for 4 days by celltiter-glo assay; settings: HCT-116, 96 h
# Sequence of Tumour suppressor p53/oncoprotein Mdm2 (P04637 whole entry): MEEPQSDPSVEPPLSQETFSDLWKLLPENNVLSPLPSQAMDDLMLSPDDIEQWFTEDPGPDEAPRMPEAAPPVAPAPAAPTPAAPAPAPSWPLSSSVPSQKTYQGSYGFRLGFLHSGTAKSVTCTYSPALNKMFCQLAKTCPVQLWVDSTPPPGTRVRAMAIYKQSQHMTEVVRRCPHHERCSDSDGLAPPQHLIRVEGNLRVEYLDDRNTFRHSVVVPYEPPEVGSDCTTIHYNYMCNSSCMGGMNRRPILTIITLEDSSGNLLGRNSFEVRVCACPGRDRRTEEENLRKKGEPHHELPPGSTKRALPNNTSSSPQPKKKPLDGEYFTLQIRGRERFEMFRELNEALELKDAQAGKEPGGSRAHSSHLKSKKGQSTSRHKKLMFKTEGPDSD
# Sequence of Tumour suppressor p53/oncoprotein Mdm2 (Q00987 whole entry): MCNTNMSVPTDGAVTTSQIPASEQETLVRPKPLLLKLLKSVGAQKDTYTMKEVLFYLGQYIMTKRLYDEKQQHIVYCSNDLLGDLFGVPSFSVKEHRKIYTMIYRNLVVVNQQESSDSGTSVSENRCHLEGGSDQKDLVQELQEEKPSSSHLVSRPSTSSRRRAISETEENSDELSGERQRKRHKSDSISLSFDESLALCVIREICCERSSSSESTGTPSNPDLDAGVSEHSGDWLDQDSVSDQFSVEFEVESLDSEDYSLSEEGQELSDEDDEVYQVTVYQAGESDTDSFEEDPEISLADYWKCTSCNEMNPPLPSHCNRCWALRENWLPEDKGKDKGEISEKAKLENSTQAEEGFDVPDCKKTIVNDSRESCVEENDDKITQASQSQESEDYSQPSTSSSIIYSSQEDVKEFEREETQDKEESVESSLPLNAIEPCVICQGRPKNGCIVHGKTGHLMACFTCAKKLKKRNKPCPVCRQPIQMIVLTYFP
# Sequence of Tumour suppressor protein p53/Mdm4 (P04637 whole entry, one chain of several): as the sequence (P04637 whole entry) above
SMILES,IC50 (HCT-116 [1]),IC50 (RKO),IC50 (U2OS),further results
COc1cc(C(=O)O)ccc1NC(=O)[C@@H]1N[C@@H](CC(C)(C)C)[C@@]2(CNc3cc(Cl)ccc32)[C@H]1c1cccc(F)c1,0.0013 µM,0.0669 µM,–,–
COc1cc(C(=O)O)ccc1NC(=O)[C@@H]1N[C@@H](CC(C)(C)C)[C@@]2(CNc3cc(Cl)ccc32)[C@H]1c1cccc(C)c1,0.01 µM,0.436 µM,–,–
CCN1[C@@H](CC(C)(C)C)[C@@]2(CNc3cc(Cl)ccc32)[C@@H](c2cccc(F)c2)[C@@H]1C(=O)Nc1ccc(C(=O)O)cc1OC,0.0257 µM,0.172 µM,0.304 µM,–
COc1ccc(C2=N[C@@H](c3ccc(Cl)cc3)[C@@H](c3ccc(Cl)cc3)N2C(=O)N2CCNC(=O)C2)c(OC(C)C)c1 [NUTLIN-3],1.04 µM,1.92 µM,–,IC50 (A549): 1.88 µM; IC50 (HepG2): 2.05 µM; IC50 (NCI-H460): 0.00649 µM; IC50 (HeLa): 0.0282 µM; IC50 (SW480): 0.0241 µM; IC50 (MSTO-211H): 2.8 µM
CCN1[C@@H](CC(C)(C)C)[C@@]2(CNc3cc(Cl)ccc32)[C@@H](c2ccccc2F)[C@@H]1C(=O)Nc1ccc(C(=O)O)cc1OC,0.865 µM,2.94 µM,3.41 µM,–
CCN1[C@@H](CC(C)(C)C)[C@@]2(CNc3ccc(Cl)cc32)[C@@H](c2cccc(Cl)c2Cl)[C@@H]1C(=O)Nc1ccc(C(=O)O)cc1OC,1.4 µM,4.43 µM,1.84 µM,–
CCN1[C@@H](CC(C)(C)C)[C@@]2(CNc3cc(Cl)ccc32)[C@@H](c2cccc(Cl)c2Cl)[C@@H]1C(=O)Nc1ccc(C(=O)O)cc1OC,0.0755 µM,0.33 µM,0.647 µM,–
O=C1CN(C(=O)N2C(c3ccc4c(c3)C(=O)NCC(=O)N4c3ccccc3)=N[C@@H](c3ccc(Cl)cc3)[C@H]2c2ccc(Cl)cc2)CCN1,–,–,–,Ki [2]: 0.0108 µM; Ki [3]: 0.0021 µM
CCN1[C@@H](CC(C)(C)C)[C@@]2(CNc3cc(Cl)ccc32)[C@@H](c2ccccc2Cl)[C@@H]1C(=O)Nc1ccc(C(=O)O)cc1OC,2.04 µM,5.24 µM,2.82 µM,–
CNC(=O)c1ccc(NC(=O)[C@@H]2N[C@@H](CC(C)(C)C)[C@@]3(CNc4cc(Cl)ccc43)[C@H]2c2cccc(Cl)c2F)c(OC)c1,0.022 µM,0.243 µM,–,Ki (Protein Mdm4): > 0.027 µM
COc1cc(C(=O)O)ccc1NC(=O)[C@@H]1N[C@@H](CC(C)(C)C)[C@@]2(CNc3cc(Cl)ccc32)[C@H]1c1cccc(Cl)c1,–,0.0129 µM,–,IC50 (HCT-116 [4]): < 0.001 µM
CCN1[C@@H](CC(C)(C)C)[C@@]2(CNc3cc(Cl)ccc32)[C@@H](c2cccc(C)c2)[C@@H]1C(=O)Nc1ccc(C(=O)O)cc1OC,0.144 µM,1.01 µM,0.625 µM,–

# From ChEMBL document CHEMBL5375985, “Discovery of JN122, a Spiroindoline-Containing Molecule that Inhibits MDM2/p53 Protein-Protein Interaction and Exerts Robust In Vivo Antitumor Efficacy” (J Med Chem, 2023)
